The record followed here is paper PMC6359343 (Molecules, 2019).

Entries after “also recorded” stand apart in the source; their conditions may differ. Where two headings read alike, the source gives them in different places.

Assay [1] concerns the target Neuraminidase from Clostridium perfringens (C. welchii) (EC 3.2.1.18). Format: biochemical. As to conditions: for IC50: pH 5.0, 37 °C, read-out: IC50, bacterial neuraminidase.
Assay [2] has as its target Neuraminidase from Clostridium perfringens (bacterial neuraminidase). In kind it is biochemical. As to conditions: for Ki: read-out: Ki (inhibition constant); for Kik/Kiv: Yang's method.
Assay [3] relates to Neuraminidase from Clostridium perfringens (bacterial neuraminidase). Format: binding.
The mark [4] stands for this setting: concentration that caused 50% enzyme activity loss, three repeats.
Where [5] appears, read: Lineweaver–Burk and Dixon plots.

In the case of `O=c1c(O)c(-c2ccc(O)c(O)c2)oc2cc(O)cc(O)c12` [Quercetin, reference compound], the half-maximal inhibitory concentration (IC50) (commonly the concentration that gives 50% inhibition) in assay [1] (setting [4]) was found to be 20.2 ± 0.8 µM.
Turning to `COc1ccc(-c2oc3c(c(O)cc4oc(C(C)(C)OC)cc43)c(=O)c2OC2OC(C)C(O)C(O)C2O)cc1` [Compound 7, 5-hydroxy-2-(4-methoxyphenyl)-8-(2-methoxypropan-2-yl)-3-(((2S,3R,4R,5R,6S)-3,4,5-trihydroxy-6-methyltetra-hydro-2H-pyran-2-yl)oxy)-4H-furo[2-3-h]chromen-4-one], in assay [1] (setting [4]), the IC50 was determined as 2.9 ± 0.7 µM. Also, the “times more effective compared with compound 8” value in assay [1] (methoxy group (7) versus hydroxyl group (8)) was 5 times. In addition, the inhibition constant (Ki) (in general, the equilibrium dissociation constant of an inhibitor or competing ligand from its target) in assay [2] (Dixon plots) is 2.73 µM. Further, the “Kinetic Mode” value in assay [2] (setting [5]) is listed as “Noncompetitive”. Further, in assay [3] (fluorescence quenching, pH 5.0), the “KA (binding constant)” value was 785100 L/mol and the “KSV (Stern–Volmer constant)” value came to 216560 L/mol.
In the case of `CC(C)=CCc1cc(-c2cc(=O)c3c(O)cc(O)c(CC=C(C)C)c3o2)cc(O)c1O` [Compound 1, epimedokoreanin B], the concentration for half-maximal inhibition (IC50) in assay [1] (setting [4]) stood at 0.17 ± 0.02 µM. The “times more effective than luteolin (mother skeleton)” value in assay [1] (ratio of IC50 values) was 500 times. Moreover, the inhibition constant Ki in assay [2] (Dixon plots) was determined as 0.15 µM. The “Kinetic Mode” value is reported as “Noncompetitive” in assay [2] (setting [5]); “noncompetitive inhibition; also recorded: noncompetitive behavior” in assay [2] (Lineweaver–Burk and Dixon plots, listed as compound 1). For the same compound, the Kik/Kiv came to 16.0415 in assay [2] ([I] 0.12 µM), 6.6846 in assay [2] ([I] 0.24 µM) and 7.7610 in assay [2] ([I] 0.48 µM). In addition, the reversibility of inhibition entry in assay [2] (initial velocity versus enzyme concentration plots) is reported as “reversible inhibitor”. Besides, in assay [3] (fluorescence quenching, pH 5.0), the “KA (binding constant)” value worked out at 966600 L/mol. Also, in assay [3] (fluorescence quenching, pH 5.0), the “KSV (Stern–Volmer constant)” value was determined as 411040 L/mol.
Consider `COc1ccc(-c2oc3c(CC=C(C)C)c(O)cc(O)c3c(=O)c2O[C@@H]2O[C@@H](C)[C@H](O)[C@@H](O)[C@H]2O[C@@H]2OC[C@@H](O)[C@H](O)[C@H]2O)cc1` [Compound 6, sagittatoside B], for which, in assay [1] (setting [4]), the 50% inhibitory concentration (IC50) amounted to 106 ± 3.2 µM. Moreover, in assay [2] (Dixon plots), the Ki worked out at 103 µM. In assay [2] (setting [5]), the “Kinetic Mode” value was “Noncompetitive”. Besides, in assay [3] (fluorescence quenching, pH 5.0), the “KA (binding constant)” value was determined as 505700 L/mol and the “KSV (Stern–Volmer constant)” value was found to be 56080 L/mol.
Regarding `COc1ccc(-c2oc3c(c(O)cc4oc(C(C)(C)O)cc43)c(=O)c2O[C@@H]2O[C@@H](C)[C@H](O)[C@@H](O)[C@H]2O)cc1` [Compound 8, 5-hydroxy-8-(2-hydroxypropan-2-yl)-2-(4-methoxyphenyl)-3-(((2S,3R,4R,5R,6S)-3,4,5-trihydroxy-6-methyl-tetrahydro-2H-pyran-2-yl)oxy)-4H-furo[2,3-h]chromen-4-one], the IC50 in assay [1] (setting [4]) was found to be 16.7 ± 0.9 µM. Further, in assay [2] (Dixon plots), the inhibition constant Ki was 16.4 µM. Moreover, in assay [2] (setting [5]), the “Kinetic Mode” value is “Noncompetitive”. For the same compound, in assay [3] (fluorescence quenching, pH 5.0), the “KA (binding constant)” value worked out at 741600 L/mol and the “KSV (Stern–Volmer constant)” value worked out at 111200 L/mol.
For `COc1ccc(-c2oc3c(CC=C(C)C)c(O[C@@H]4O[C@H](CO)[C@@H](O)[C@H](O)[C@H]4O)cc(O)c3c(=O)c2O[C@@H]2O[C@@H](C)[C@H](O)[C@@H](O)[C@H]2O)cc1` [Compound 5, icariin], the IC50 in assay [1] (setting [4]) was 57.8 ± 1.1 µM. Further, the inhibitory constant (Ki) in assay [2] (Dixon plots) stood at 36.8 µM. In assay [2] (setting [5]), the “Kinetic Mode” value is “mixed type inhibitor; also recorded: mixed-type behavior; also recorded: Mixed type I”. Also, the figures for the Kik/Kiv in assay [2] ([I] 35.0 µM), in assay [2] ([I] 70.0 µM) and in assay [2] ([I] 140.0 µM) were 3.6688, 2.3384 and 2.0207, respectively. The “KA (binding constant)” value in assay [3] (fluorescence quenching, pH 5.0) came out at 584400 L/mol. The “KSV (Stern–Volmer constant)” value in assay [3] (fluorescence quenching, pH 5.0) was found to be 60400 L/mol.
As for `O=c1cc(-c2ccc(O)cc2)oc2cc(O)cc(O)c12` [Apigenin, apigenin, reference compound], the 50% inhibitory concentration (IC50) in assay [1] (setting [4]) was 108 ± 1.8 µM. In assay [3] (fluorescence quenching, pH 5.0), the “KA (binding constant)” value stood at 514200 L/mol.
As for `CC(C)=CCc1c(O)cc(O)c2c1OC(c1ccc(O)cc1)C(O)C2=O` (stereo not shown) [Compound 2, 8-(γ,γ-dimethylallyl)-5,7,4′-trihydroxydihydroflavonol], the 50% inhibitory concentration (IC50) in assay [1] (setting [4]) came out at 0.68 ± 0.03 µM. Further, in assay [1] (ratio of IC50 values), the “times more potent in comparison with dihydrokaempferol” value turned out to be 700 times. Moreover, the inhibition constant Ki in assay [2] (Dixon plots) is 0.73 µM. Moreover, the “Kinetic Mode” value in assay [2] (setting [5]) is recorded as “Noncompetitive”. Also, in assay [3] (fluorescence quenching, pH 5.0), the “KA (binding constant)” value worked out at 792300 L/mol and the “KSV (Stern–Volmer constant)” value worked out at 236360 L/mol.
For the compound `O=c1cc(-c2ccc(O)c(O)c2)oc2cc(O)cc(O)c12` [Luteolin, luteolin, reference compound], the IC50 in assay [1] (setting [4]) amounted to 85.6 ± 2.1 µM. Further, in assay [3] (fluorescence quenching, pH 5.0), the “KA (binding constant)” value came to 557800 L/mol and the “KSV (Stern–Volmer constant)” value is 56140 L/mol.
For `O=C1c2c(O)cc(O)cc2O[C@H](c2ccc(O)cc2)[C@H]1O` [Dihydrokaempferol, dihydrokaempferol, reference compound], the IC50 in assay [1] (setting [4]) was found to be 500.4 ± 3.8 µM. For the same compound, in assay [3], the “fluorescence quenching (FQ) effect” value is on record as “insignificant”. Further, in assay [3] (fluorescence quenching, pH 5.0), the “KA (binding constant)” value came out at 299800 L/mol and the “KSV (Stern–Volmer constant)” value is 24790 L/mol.
As for icariside II [Compound 4], the IC50 in assay [1] turned out to be 20 ± 0.5 µM. Further, in assay [2], the “Kinetic Mode” value was “Noncompetitive (21.1 ± 0.8)” and the inhibition constant Ki turned out to be 21.1 µM. Besides, in assay [3] (pH 5), the “KA (binding constant)” value came out at 733500 L/mol and the “KSV (Stern–Volmer constant)” value was 95690 L/mol.
Regarding `CC(C)=CCc1cc(-c2cc(=O)c3c(O)cc(O)c(CC=C(C)C)c3o2)ccc1O` [Compound 3, 5,7,4′-trihydroxy-8,3′-diprenyl flavone], the IC50 in assay [1] (setting [4]) amounted to 12.6 ± 0.2 µM. For the same compound, the Ki in assay [2] (Dixon plots) came to 12.2 µM. Further, the “Kinetic Mode” value in assay [2] (setting [5]) is “Noncompetitive”. Moreover, in assay [3] (fluorescence quenching, pH 5.0), the “KA (binding constant)” value turned out to be 760400 L/mol and the “KSV (Stern–Volmer constant)” value worked out at 134420 L/mol.
